For one assay, the target named is T1, PERK (Rattus norvegicus, UniProt Q9Z1Z1).
T1 construct: the PERK shRNA lentivirus was stereotacticaly injected to the IC of adult rats; from tissue; host or cells: insular cortex of adult male Wistar Hola rats, in vivo
T1 sequence (Q9Z1Z1 28-1108): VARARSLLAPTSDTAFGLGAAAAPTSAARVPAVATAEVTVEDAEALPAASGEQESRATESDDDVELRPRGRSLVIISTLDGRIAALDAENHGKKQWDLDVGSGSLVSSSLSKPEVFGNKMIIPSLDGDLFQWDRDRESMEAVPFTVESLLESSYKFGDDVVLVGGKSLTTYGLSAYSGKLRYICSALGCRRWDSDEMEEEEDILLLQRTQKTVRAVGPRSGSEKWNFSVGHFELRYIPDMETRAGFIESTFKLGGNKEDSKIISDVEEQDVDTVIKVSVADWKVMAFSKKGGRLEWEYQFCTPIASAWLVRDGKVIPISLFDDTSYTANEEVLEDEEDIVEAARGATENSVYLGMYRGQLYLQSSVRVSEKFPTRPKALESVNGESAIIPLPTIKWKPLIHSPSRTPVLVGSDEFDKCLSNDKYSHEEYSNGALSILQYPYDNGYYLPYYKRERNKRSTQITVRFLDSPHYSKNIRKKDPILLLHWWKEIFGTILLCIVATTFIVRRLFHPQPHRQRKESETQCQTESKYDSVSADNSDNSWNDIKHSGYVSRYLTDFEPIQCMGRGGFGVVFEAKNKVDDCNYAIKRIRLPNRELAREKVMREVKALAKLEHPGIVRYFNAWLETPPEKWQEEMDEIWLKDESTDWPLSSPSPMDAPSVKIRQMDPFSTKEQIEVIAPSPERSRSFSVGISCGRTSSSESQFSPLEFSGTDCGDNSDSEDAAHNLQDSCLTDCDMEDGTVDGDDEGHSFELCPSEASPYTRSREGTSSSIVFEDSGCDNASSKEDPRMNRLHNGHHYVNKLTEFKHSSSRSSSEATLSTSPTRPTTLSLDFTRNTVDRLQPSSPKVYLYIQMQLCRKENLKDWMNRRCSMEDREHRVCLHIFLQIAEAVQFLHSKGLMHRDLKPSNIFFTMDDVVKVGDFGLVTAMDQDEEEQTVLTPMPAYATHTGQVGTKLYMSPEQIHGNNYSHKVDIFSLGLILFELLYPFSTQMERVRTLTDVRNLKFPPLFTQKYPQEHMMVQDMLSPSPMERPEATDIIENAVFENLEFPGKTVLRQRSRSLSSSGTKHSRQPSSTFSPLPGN
In kind it is in vivo. The note with it: 0.1% saccharin; 1 μl 100 nM into IC 20 min prior to novel taste; test day1; n=8.

The next assay has as its system pyramidal CA1 neurons. The assay is described as follows: Whole cell patch clamp recording of intrinsic neuronal properties. The settings on record: vs vehicle. The class given is cell-based, mouse. On the procedure:
Mice were sacrificed by cervical dislocation and three hundred micrometer coronal brain slices were cut with a Campden-1000 Vibrotome. Slices were cut in ice-cold cutting solution containing (in mM) 110 sucrose, 60 NaCl, 3 KCl, 1.25 NaH2PO4, 28 NaHCO3, 0.5 CaCl2, 7 MgCl2, 5 glucose, and 0.6 ascorbate and recovered for 30 min at 37° C. in artificial cerebrospinal fluid (ACSF) containing (in mM) 125 NaCl, 2.5 KCl, 1.25 NaH2PO4, 25 NaHCO3, 25 D-glucose, 2 CaCl2, and 1 MgCl2, followed by additional recovery for 30 min in room-temperature ACSF. After initial recovery, slices were placed in a submerged chamber and maintained at 34° C. in ACSF (2 ml/min). All solutions were constantly carboxygenated with 95% O2+5% CO2.
Cells infected with PERK-shRNA- or scrambled sequence PERK shRNA (PERK-Scr)-containing AAV were identified by green fluorescence. Recordings were amplified by multiclamp 700B and digitized by Digidata 1440 (Molecular Devices). The recording electrode was pulled from a borosilicate glass pipette (3-5 MΩ) using an electrode puller (P-1000; Sutter Instruments) and filled with a K-gluconate-based internal solution containing (in mM) 120 K-gluconate, 20 KCl, 10 HEPES, 2 MgCl2, 4 Na2ATP, 0.5 TrisGTP, 14 phosphocreatine, osmolarity 290 mOsm, and pH 7.3. The recording glass pipettes were patched onto the soma region of pyramidal cells. Voltages for liquid junction potential (+10 mV) were not corrected online. All current-clamp recordings were low-pass filtered at 10 kHz and sampled at 50 kHz. Series resistance was compensated and only series resistance <20 MΩ was included in the data set. Pipette capacitance was ˜99% compensated. The method for measuring active intrinsic properties was based on a modified version of Kaphzan H et al., 2013. For recordings with GSK2606414, 100 nM inhibitor was applied in the pipette solution, and recordings were performed as described above.
Resting membrane potential (RMP) was measured 5 min after the seal was ruptured. The I-V (current-voltage) relationship used to calculate number of action potentials obtained by injection of 1 s pulses (−150 to +300 pA in 50 pA increments).
Input resistance (Rin) was calculated from the voltage response to a hyperpolarizing current pulse (−150 pA). For measurements of a single AP, after initial assessment of the current, which was required to induce an action potential at 15 ms from the start of the current injection with large steps (50 pA), we injected a series of brief depolarizing currents for 10 ms in steps of 10 pA increments. The first action potential that appeared on the 5 ms time point was analyzed. A curve of dV/dt was created for that trace, and the 30 V/s point in the rising slope of the action potential was considered as threshold (Kaphzan et al., 2013).
AP amplitude was measured from the equipotential point of the threshold to the spike peak, while AP duration was measured at the point of half-amplitude of the spike. The mAHP (medium after-hyperpolarization) was measured using prolonged (3 s), high-amplitude (3 nA) somatic current injections to initiate time-locked action potential trains of 50 Hz frequency and duration (10-50 Hz, 1 or 3 s) in pyramidal cells. These action potential trains generated prolonged (˜20 s) AHPs, the amplitudes and integrals of which increased with the number of action potentials in the spike train. AHP was measured from the equipotential point of the threshold to the anti-peak of the same spike (Gulledge et al., 2013).
Series resistance, input resistance, and membrane capacitance were monitored during the entire experiment. Changes in these parameters (which were monitored throughout the entire duration of the experiment) greater than 10% were criteria for exclusion of data. AU experimental analyses were performed in a blind manner; the identity of the mouse from which neurons were recorded (PERK shRNA or scrambled) was not known to the person conducting the experiments and measurements.
A general note: In patch-clamp work, channel activity is measured electrically.

Another assay deals with p-eIF2α. Description: Immunoblot of p-eIF2α levels in CA1 punches. In kind it is in vivo, mouse. The settings on record: CA1 punches after 100 nM infusion into CA1, adult mice; vs vehicle. On the technique in general: Immunoblotting shows a protein as a band on a membrane.

We go through 1 molecule from patent US10246712B2, “Genetic or pharmacological reduction of PERK enhances cortical- and hippocampus-dependent cognitive function” (Carmel-Haifa University Economic Corp. Ltd, priority 2015, dated 2019).

Description for PERK: For virus infusions, rats were first anesthetized with Ketamine (120 mg/kg) and Xylazine (6 mg/kg) and placed into a stereotactic frame (Steolting Europe, Dublin—Ireland) (Using a 32-gauge stainless steel injector attached to a stereotactic infusion pump, rats received 1 μl of lentivirus encoding PERK shRNA or lentivirus harboring a scrambled sequence over 10 min into the insular cortex (anteroposterior, +1.2 mm relative to bregma; lateral, ±5.5 mm; ventral, −6.0 mm) according to the atlas of Paxinos, G. & Watson, C. (2006). The injector was lets in place for 5 min before and after infusion to minimize fluid retraction. The rats were allowed at least 7 days to recover from the surgery before any behavior experiments were conducted.
The rats were cannulated as described in Barki-Harrington et al. (2009). […]
The rats were separated into individual housing cages and underwent a 3-day water-restriction training session, in which once a day for 20 min, they were offered 20 ml of water from two pipettes, each containing 10 ml. […] The behavioral data are presented in terms of preference index, expressed as a percentage, [ml saccharin/(ml water plus ml saccharin)]×100, in which the quantities are those consumed during each test.

`Cn1cc(-c2ccc3c(c2)CCN3C(=O)Cc2cccc(C(F)(F)F)c2)c2c(N)ncnc21` [GSK2606414, 7-methyl-5-(1-{[3-(trifluoromethyl)phenyl]acetyl}-2,3-dihydro-1H-indol-5-yl)-7H-pyrrolo[2,3-d]pyrimidin-4-amine]: the preference index on PERK is reported as 83%±2.2. Further, the “action potential (AP) frequency” value with pyramidal CA1 neurons (100 nM in pipette solution, acute hippocampal slices, increased current steps) is “increased”. In the assay with pyramidal CA1 neurons (100 nM in pipette solution), the AP amplitude entry is listed as “longer”, the AP mid width entry was “wider”, the AP threshold entry is “hyperpolarized” and the input resistance entry is “Neither resting membrane potential (RMP) nor input resistance was changed”. Also, in the assay with pyramidal CA1 neurons (100 nM in pipette solution), the “resting membrane potential (RMP)” value is on record as “Neither resting membrane potential (RMP) nor input resistance was changed”. Besides, the mAHP entry in the assay with pyramidal CA1 neurons (100 nM, acute hippocampal slices) is reported as “significantly reduced”. In addition, in the assay with p-eIF2α, the p-eIF2α levels result is on record as “significant reduction”.
